Source: patent publication US20060153913A1, “Solid formulation with improved solubility and stability, and method for producing said formulation” (priority 2004, published 2006)

How the values were obtained:
Assay type in all cases: physicochemical
[1] = Stability test under heating condition at 80° C. (HPLC impurities, powder X-ray diffraction)
Experimental: Each of the powder formulations obtained in Example 3 was tested under heating condition at 80° C. The purity was determined by high performance liquid chromatography (measured wave length; 242 nm). The state of crystallization was estimated by powder X-ray diffraction.

[2] = Dissolution test, second method of Japanese Pharmacopoeia (paddle method); conditions: after 60 minutes; paddle method 50 rpm, 0.1 w/v % sodium lauryl sulfate solution 900 mL, 37° C.
Experimental: Dissolution test was performed following the second method of Japanese Pharmacopoeia dissolution test method (paddle method, 50 rpm) using a 0.1 w/v % deaerated sodium lauryl sulfate solution (900 mL, 37° C.). The tablets (133.00 mg/tablet; containing 5 mg of bulk drug) produced in Example 1 were put into the test solution as they were. For referential control, the bulk drug consisting crystal was put into the test solution as it was. The temperature was adjusted to 37±0.1° C.

[3] = Stability test under humid condition at 40° C.; conditions: Immediately after Formulation
Experimental: Each of the powder formulations obtained in Example 3 was tested under heating condition at 40° C. under humid condition.

[4] = 80° C., Open Condition, After 3 days

With CCOC(=O)C(COC(=O)Cc1ccc(NC(=O)c2ccccc2-c2ccc(C(F)(F)F)cc2)c(C(=O)N(C)C)c1)(C(=O)OCC)c1ccccc1 [MTP Inhibiting Compound, diethyl 2-(2-{3-dimethylcarbamoyl-4-[(4′-trifluoromethyl-biphenyl-2-carbonyl)-amino]-phenyl}-acetoxymethyl)-2-phenyl-malonate] the “Impurities Max (%)” value [1, 4] was 0.08%, the “Impurities Total (%)” value [1, 4] was 0.24% and the “Impurities Max (%)” value ([1]; Immediately after Formulation) was 0.28%. For the same compound, the “Impurities Total (%)” value ([1]; Immediately after Formulation) was 0.40%, the dissolution [2] was “did not dissolve” and the “Impurities Max (%)” value [3] was 0.11%. For the same compound, the “Impurities Total (%)” value [3] was 0.40%.
